Results taken from patent US10081609B2, “Compounds for inducing proliferation and differentiation of cells, and methods of use thereof” (The Broad Institute, Inc., priority 2013, dated 2018).

Tests used:
[1] = tested on: human primary hepatocytes; experiment: High-throughput liver platform, primary screening: hepatocyte proliferation by automated high-content imaging (hepatocyte nuclei numbers); type: cell-based; conditions: primary screening
Experimental: In order to avoid species-specific differences and cell line mutations, the screen was conducted with human primary hepatocytes. Traditionally, chemical screening on such cells has been hindered by their availability in large quantities as well as their rapid loss of viability and phenotype in vitro. Recent advances in cryopreservation technologies allowed enough primary human cells to be stored for screening; these cells are maintained through co-cultivation with non-parenchymal cells. Co-cultures of primary human hepatocytes with murine embryonic J2-3T3 fibroblasts were recently shown to maintain normal hepatocyte phenotype for weeks. These in vitro platforms consisted of hepatocytes surrounded by a co-planar population of fibroblasts. While sufficient for stabilizing hepatocyte functions in vitro, such platforms may limit normal hepatocyte expansion due to contact inhibition. Thus, for this screen, a sparse population of hepatocytes was co-cultivated on top of a confluent feeder layer of J2-3T3 fibroblasts within 384-well plates (FIG. 1A top). This screening platform stabilized hepatocyte phenotypic functions in vitro (FIG. 1A bottom) and was compatible with two separate high-throughput readouts developed for this screen.
The primary readout detected hepatocyte proliferation via automated high-content imaging. This assay quantified hepatocyte nuclei numbers, using nuclear morphologies to separate the hepatocyte and fibroblast subpopulations that co-exist within the screening platform. When visualized with Hoechst stain, hepatocyte nuclei were smaller and more uniform in texture while fibroblast nuclei were larger and punctated (FIG. 1A bottom). Leveraging this distinction, automated image analyses was developed that utilized machine learning algorithms to classify nuclei types and tabulate hepatocyte nuclei numbers. […] Besides quantifying hepatocyte nuclei that have completed mitosis, the number of nuclei in the process of mitosis were also quantified. Two additional analysis pipelines were built to detect nuclear morphologies consistent with cells undergoing metaphase and anaphase.
FIG. 1B top summarizes the workflow of the screen. Primary screening was done on human primary hepatocytes, preconditioned for seven days by non-parenchymal cells in the screening platform. Upon stabilization in vitro, cultures were treated with the chemical library for 48 hours. All compounds were tested in duplicates, at a single concentration of 15 μM. This single concentration was selected via a pilot screen of ˜2,000 small molecules. All 12,480 small molecules were initially tested on a single donor of cryopreserved hepatocytes (donor a) in order to eliminate noise from donor-to-donor variability. Following compound treatment, media supernatants were collected for functional analyses via ELISA and cultures were fixed in 4% paraformaldehyde for proliferation analyses via imaging.
To identify proliferation hits, three image-based readouts—one each to quantify the number of (1) hepatocyte nuclei in interphase, (2) nuclei in metaphase and (3) nuclei in anaphase—were integrated. z Scores were converted into p values, which were then used to generate ranked lists of compounds based on the efficacy and consistency of effects across the different proliferation readouts. Efficacy was assessed by the product of p values (pprod=pinter×pmeta×pana); consistency was evaluated by the maximum of p values (pmax=max(pinter, pmeta, pana). Compounds were considered proliferation hits if pprod<1×10^−6 and pmax<0.25. Functional hits were selected by an ELISA […]. Compounds with ELISA z>3.0 were eliminated as toxic. 93 compounds met all hit selection criteria, qualifying as Functional Proliferation Hits (FPH); FIG. 1B bottom illustrates the types of compounds that constituted this set of hits.

ALK = ALK (Homo sapiens, UniProt Q9UM73); experiment: Kinome analysis (panel of kinases); type: biochemical
ALK, sequence (Q9UM73 19-1620, species assumed): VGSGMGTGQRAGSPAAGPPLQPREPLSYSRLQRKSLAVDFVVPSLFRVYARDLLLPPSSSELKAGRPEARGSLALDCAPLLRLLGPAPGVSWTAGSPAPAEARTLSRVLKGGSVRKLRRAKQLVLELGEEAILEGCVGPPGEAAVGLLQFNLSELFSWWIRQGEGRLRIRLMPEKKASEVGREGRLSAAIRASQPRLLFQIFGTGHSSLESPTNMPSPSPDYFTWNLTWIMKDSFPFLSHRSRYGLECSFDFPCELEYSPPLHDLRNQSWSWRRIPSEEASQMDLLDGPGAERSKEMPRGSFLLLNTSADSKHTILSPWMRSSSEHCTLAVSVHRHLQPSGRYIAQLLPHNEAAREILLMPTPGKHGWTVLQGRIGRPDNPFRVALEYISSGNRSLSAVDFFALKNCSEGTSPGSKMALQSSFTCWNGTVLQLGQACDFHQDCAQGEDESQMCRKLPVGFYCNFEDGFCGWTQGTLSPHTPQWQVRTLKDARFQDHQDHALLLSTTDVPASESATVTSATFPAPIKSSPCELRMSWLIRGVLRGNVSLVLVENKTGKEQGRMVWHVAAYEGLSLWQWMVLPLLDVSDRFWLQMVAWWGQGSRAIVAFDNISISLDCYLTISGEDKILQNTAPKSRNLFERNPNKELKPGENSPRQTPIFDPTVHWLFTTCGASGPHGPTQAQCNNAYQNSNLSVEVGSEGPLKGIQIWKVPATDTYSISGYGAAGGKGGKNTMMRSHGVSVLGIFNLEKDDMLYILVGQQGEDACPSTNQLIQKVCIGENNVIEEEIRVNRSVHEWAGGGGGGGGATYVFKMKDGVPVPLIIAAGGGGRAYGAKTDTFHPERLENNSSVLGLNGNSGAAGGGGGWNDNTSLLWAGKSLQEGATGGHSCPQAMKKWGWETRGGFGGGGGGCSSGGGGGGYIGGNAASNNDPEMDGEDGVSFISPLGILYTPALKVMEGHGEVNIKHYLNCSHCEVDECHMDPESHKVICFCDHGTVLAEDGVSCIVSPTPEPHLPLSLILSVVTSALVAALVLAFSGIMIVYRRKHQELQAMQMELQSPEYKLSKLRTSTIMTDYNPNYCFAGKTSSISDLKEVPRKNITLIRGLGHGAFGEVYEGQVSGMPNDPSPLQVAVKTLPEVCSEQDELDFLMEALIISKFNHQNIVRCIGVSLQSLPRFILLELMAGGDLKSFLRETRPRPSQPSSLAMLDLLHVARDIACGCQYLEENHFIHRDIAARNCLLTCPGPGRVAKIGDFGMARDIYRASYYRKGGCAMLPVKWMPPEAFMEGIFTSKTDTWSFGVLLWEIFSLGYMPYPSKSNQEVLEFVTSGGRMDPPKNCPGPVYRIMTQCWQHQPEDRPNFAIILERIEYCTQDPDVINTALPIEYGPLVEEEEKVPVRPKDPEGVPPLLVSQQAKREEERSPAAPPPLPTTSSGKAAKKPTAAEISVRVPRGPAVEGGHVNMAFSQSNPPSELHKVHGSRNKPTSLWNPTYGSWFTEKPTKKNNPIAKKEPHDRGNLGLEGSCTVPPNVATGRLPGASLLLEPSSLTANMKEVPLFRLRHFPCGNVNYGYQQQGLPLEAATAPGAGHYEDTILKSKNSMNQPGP
Experimental: (§1) Selected compounds of the invention (FPH1 and FPH2; both at 1 μM concentration) were screened against a panel of kinases (FIG. 17).

CDK5 = CDK5 (Homo sapiens, UniProt Q00535); experiment: Kinome analysis (panel of kinases); type: biochemical
Experimental: as §1

CK1 γ2 = CK1 γ2 (Homo sapiens, UniProt P78368); experiment: Kinome analysis (panel of kinases); type: biochemical
Experimental: as §1

CLK1 = CLK1 (Homo sapiens, UniProt P49759); experiment: Kinome analysis (panel of kinases); type: biochemical
CLK1, sequence (P49759 whole entry): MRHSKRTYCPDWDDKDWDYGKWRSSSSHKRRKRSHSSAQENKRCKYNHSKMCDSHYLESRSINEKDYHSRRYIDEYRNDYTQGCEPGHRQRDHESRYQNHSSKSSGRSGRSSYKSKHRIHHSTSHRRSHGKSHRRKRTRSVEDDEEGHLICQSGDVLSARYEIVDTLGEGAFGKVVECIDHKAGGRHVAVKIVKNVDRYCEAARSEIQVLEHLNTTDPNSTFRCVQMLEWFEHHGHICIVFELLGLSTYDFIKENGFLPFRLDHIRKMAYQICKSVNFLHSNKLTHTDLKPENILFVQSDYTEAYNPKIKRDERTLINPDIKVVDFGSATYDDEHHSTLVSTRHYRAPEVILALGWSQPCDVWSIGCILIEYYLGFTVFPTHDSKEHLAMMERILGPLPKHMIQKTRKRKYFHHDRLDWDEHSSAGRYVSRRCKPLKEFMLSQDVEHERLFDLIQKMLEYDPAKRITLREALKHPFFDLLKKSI
Experimental: as §1

CLK4 = CLK4 (Homo sapiens, UniProt Q9HAZ1); experiment: Kinome analysis (panel of kinases); type: biochemical
Experimental: as §1

CaMK1 δ = CaMK1 δ (Homo sapiens, UniProt Q8IU85); experiment: Kinome analysis (panel of kinases); type: biochemical
Experimental: as §1

DAPK1 = DAPK1 (Homo sapiens, UniProt P53355); experiment: Kinome analysis (panel of kinases); type: biochemical
Experimental: as §1

EphB4 = EphB4 (Homo sapiens, UniProt P54760); experiment: Kinome analysis (panel of kinases); type: biochemical
Experimental: as §1

FAK = FAK (Homo sapiens, UniProt Q05397); experiment: Kinome analysis (panel of kinases); type: biochemical
FAK, sequence (Q05397 whole entry, species assumed): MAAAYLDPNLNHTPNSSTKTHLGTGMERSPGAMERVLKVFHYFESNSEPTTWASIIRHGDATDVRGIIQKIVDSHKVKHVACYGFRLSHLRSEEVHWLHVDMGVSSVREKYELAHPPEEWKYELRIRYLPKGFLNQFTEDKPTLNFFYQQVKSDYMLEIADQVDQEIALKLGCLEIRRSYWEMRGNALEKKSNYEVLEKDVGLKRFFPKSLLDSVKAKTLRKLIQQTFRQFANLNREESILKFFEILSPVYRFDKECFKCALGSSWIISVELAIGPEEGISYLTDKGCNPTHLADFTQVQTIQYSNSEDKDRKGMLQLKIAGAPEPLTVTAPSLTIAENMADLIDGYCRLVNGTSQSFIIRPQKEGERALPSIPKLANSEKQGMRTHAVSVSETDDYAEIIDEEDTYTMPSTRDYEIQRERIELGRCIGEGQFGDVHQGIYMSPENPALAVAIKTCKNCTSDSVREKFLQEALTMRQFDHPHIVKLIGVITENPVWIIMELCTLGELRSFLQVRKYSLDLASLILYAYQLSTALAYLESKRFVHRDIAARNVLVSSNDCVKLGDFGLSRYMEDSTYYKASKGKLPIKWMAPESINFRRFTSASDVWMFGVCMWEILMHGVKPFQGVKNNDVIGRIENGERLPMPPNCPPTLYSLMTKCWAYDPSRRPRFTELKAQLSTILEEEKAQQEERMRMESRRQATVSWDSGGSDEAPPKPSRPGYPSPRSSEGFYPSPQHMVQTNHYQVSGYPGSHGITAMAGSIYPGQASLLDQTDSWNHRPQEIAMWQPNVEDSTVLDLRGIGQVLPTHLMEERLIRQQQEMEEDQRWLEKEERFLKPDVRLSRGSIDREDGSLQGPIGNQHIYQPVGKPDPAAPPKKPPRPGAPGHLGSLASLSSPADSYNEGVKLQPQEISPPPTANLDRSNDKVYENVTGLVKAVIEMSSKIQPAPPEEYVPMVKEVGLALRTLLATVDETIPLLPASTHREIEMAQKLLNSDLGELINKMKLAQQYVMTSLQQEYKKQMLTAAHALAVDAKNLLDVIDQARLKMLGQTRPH
Experimental: as §1

FMS = FMS (Homo sapiens, UniProt P07333); experiment: Kinome analysis (panel of kinases); type: biochemical
FMS, sequence (P07333 20-972, species assumed): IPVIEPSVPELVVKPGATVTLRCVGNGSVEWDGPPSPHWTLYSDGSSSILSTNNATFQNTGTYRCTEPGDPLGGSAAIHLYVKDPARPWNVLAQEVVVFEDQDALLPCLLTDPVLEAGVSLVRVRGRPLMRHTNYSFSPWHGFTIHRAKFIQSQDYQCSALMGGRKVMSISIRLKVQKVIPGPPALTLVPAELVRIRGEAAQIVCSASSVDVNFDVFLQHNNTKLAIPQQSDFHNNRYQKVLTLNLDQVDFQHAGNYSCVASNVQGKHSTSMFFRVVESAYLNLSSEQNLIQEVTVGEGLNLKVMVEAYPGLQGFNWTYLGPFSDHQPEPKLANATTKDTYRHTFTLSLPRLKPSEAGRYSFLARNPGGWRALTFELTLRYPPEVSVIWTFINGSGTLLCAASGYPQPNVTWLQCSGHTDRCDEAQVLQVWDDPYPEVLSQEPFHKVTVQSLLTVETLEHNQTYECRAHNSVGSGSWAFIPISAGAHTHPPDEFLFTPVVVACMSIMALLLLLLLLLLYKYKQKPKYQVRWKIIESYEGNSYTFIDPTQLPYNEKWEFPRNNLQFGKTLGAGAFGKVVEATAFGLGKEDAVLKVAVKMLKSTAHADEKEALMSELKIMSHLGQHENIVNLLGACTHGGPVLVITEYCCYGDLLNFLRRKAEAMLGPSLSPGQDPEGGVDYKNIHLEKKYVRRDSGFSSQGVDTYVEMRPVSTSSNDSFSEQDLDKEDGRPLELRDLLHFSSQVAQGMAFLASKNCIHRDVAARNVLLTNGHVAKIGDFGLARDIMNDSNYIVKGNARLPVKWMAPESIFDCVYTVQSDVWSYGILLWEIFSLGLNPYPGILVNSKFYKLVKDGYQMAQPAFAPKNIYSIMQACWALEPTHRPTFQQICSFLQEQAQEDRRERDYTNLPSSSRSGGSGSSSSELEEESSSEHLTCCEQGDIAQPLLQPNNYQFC
Experimental: as §1

MAPKAPKV (PRAK) = MAPKAPKV (PRAK) (Homo sapiens, UniProt Q8IW41); experiment: Kinome analysis (panel of kinases); type: biochemical; conditions: read-out: MAPKAPKV (PRAK) inhibition
Experimental: as §1

NEK2 = NEK2 (Homo sapiens, UniProt P51955); experiment: Kinome analysis (panel of kinases); type: biochemical
Experimental: as §1

NEK9 = NEK9 (Homo sapiens, UniProt Q8TD19); experiment: Kinome analysis (panel of kinases); type: biochemical
NEK9, sequence (Q8TD19 whole entry, species assumed): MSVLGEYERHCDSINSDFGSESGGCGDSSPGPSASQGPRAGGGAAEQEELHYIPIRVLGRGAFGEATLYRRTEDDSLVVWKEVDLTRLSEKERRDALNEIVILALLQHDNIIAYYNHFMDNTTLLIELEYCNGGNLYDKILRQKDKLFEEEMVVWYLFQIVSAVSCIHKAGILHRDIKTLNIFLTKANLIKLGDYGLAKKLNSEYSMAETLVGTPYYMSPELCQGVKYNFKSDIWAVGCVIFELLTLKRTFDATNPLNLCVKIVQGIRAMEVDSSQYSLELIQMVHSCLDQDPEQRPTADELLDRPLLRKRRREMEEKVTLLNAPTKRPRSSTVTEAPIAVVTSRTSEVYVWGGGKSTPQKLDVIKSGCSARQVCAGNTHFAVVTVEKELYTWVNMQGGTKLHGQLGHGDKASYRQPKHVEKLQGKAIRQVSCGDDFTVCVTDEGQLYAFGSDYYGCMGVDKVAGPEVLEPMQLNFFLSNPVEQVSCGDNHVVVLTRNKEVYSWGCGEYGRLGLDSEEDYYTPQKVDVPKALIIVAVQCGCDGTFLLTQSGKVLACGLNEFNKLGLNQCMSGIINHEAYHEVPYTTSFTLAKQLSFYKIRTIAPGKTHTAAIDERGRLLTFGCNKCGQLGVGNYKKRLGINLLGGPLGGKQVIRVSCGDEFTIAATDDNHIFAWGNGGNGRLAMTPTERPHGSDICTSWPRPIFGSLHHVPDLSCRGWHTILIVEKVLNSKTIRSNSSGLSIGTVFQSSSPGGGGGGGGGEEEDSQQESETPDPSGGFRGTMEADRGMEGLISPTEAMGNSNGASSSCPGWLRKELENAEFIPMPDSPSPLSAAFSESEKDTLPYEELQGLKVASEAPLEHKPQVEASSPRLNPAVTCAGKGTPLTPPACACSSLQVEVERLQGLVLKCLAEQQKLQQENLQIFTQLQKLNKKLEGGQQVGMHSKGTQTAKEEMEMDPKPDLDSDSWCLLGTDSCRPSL
Experimental: as §1

PDGFRβ = PDGFRβ (Homo sapiens, UniProt P09619); experiment: Kinome analysis (panel of kinases); type: biochemical
Experimental: as §1

PI3KC2 α = PI3KC2 α (Homo sapiens, UniProt O00443); experiment: Kinome analysis (panel of kinases); type: biochemical
Experimental: as §1

PI3KCγ = experiment: Kinome analysis (panel of kinases); type: biochemical; conditions: 1 μM
Experimental: as §1

RSK2 = RSK2 (Homo sapiens, UniProt P51812); experiment: Kinome analysis (panel of kinases); type: biochemical
Experimental: as §1

RSK3 = RSK3 (Homo sapiens, UniProt Q15349); experiment: Kinome analysis (panel of kinases); type: biochemical
Experimental: as §1

RSK4 = RSK4 (Homo sapiens, UniProt Q9UK32); experiment: Kinome analysis (panel of kinases); type: biochemical
Experimental: as §1

Ron = Ron (Homo sapiens, UniProt Q04912); experiment: Kinome analysis (panel of kinases); type: biochemical
Experimental: as §1

eEF-2K = eEF-2K (Homo sapiens, UniProt O00418); experiment: Kinome analysis (panel of kinases); type: biochemical
Experimental: as §1

## Cc1ccc(Cl)cc1N(CC(=O)Nc1c(F)cccc1F)S(C)(=O)=O [FPH2, 2-(N-(5-chloro-2-methylphenyl)methylsulfonamido)-N-(2,6-difluorophenyl)acetamide]
[1]
  number of nuclei undergoing mitosis: elevated
[1]; 15 μM, 48 hours
  increase in hepatocyte nuclei numbers during primary screening: 1.5 ×
ALK
  inhibition at 1 µM: 23%
  remaining activity at 1 µM: 77%
CDK5
  inhibition at 1 µM: 6.7 to 18.4%
CK1 γ2
  inhibition at 1 µM: 6.7 to 18.4%
CLK1
  inhibition at 1 µM: 6.7 to 18.4%
CLK4
  inhibition at 1 µM: 6.7 to 18.4%
CaMK1 δ
  inhibition at 1 µM: 6.7 to 18.4%
DAPK1
  inhibition at 1 µM: 6.7 to 18.4%
EphB4
  inhibition at 1 µM: 18.4 to 30%
FAK
  inhibition at 1 µM: 6.7 to 18.4%
FMS
  inhibition at 1 µM: 28%
  remaining activity at 1 µM: 72%
MAPKAPKV (PRAK)
  inhibition at 1 µM: 6.7 to 18.4%
NEK2
  inhibition at 1 µM: 6.7 to 18.4%
NEK9
  inhibition at 1 µM: 6.7 to 18.4%
PDGFRβ
  inhibition at 1 µM: 6.7 to 18.4%
PI3KC2 α
  inhibition at 1 µM: 6.7 to 18.4%
PI3KCγ
  PI3KCγ inhibition: 6.7-18.4%
RSK2
  inhibition at 1 µM: 6.7 to 18.4%
RSK3
  inhibition at 1 µM: 6.7 to 18.4%
RSK4
  inhibition at 1 µM: 6.7 to 18.4%
Ron
  inhibition at 1 µM: 6.7 to 18.4%
eEF-2K
  inhibition at 1 µM: 6.7 to 18.4%
